Laboratory results: patent US20060069132A1, “Azolecarboxamide herbicides” (priority 2004, published 2006)

Columns and labels:
[1] = system: corn; test: Test B pre-/postemergence herbicide test; type: in vivo, Zea mays
Outline: (§1)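 Formulation: non-phytotoxic solvent mix with surfactant. Timing: preemergence on seed and postemergence on 2–18 cm plants, applied concurrently. Readout after 13–15 d greenhouse: visual 0–100 control rating against controls.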

[2] = system: wild oat; test: Test B postemergence herbicide test; type: in vivo, Avena fatua
Outline: (§2)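 Plants grow to 1- to 4-leaf stage (2–18 cm) for postemergence spraying, or to 2-leaf stage for the paddy test. Formulated compound is applied. Greenhouse holding lasts 13–15 days. Response is scored visually relative to controls, 0 no effect to 100 complete control; a dash means no result.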

[3] = system: pigweed; test: Test B pre-/postemergence herbicide test; type: in vivo, Amaranthus retroflexus
Outline: as §1

[4] = system: wheat; test: Test B postemergence herbicide test; type: in vivo, Triticum aestivum; set-up: key to Wheat plant response rating: 0 = no effect, 100 = complete control
Outline: as §2

[5] = system: morningglory; test: Test B pre-/postemergence herbicide test; type: in vivo, Ipomoea coccinea
Outline: (§3)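 Species tested were Echinochloa crus-galli, Ipomoea coccinea, Xanthium strumarium and Oryza sativa, treated both before emergence and at the 1- to 4-leaf stage; rice and barnyardgrass were also tested under flooding at 2 leaves. Greenhouse incubation lasted 13–15 days before visual 0–100 scoring.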

[6] = system: velvetleaf; test: Test B pre-/postemergence herbicide test; type: in vivo, Abutilon theophrasti
Outline: as §1

[7] = system: ducksalad; test: Test B flooded paddy test; type: in vivo, Heteranthera limosa; details: 1000 g ai/ha, scale 0 to 100 (0 no effect, 100 complete control)
Outline: as §2

[8] = system: large crabgrass; test: Test B pre-/postemergence herbicide test; type: in vivo, Digitaria sanguinalis
Outline: as §1

[9] = system: small flower umbrella sedge; test: Test B flooded paddy test; type: in vivo, Cyperus difformis; details: 1000 g ai/ha, scale 0 to 100 (0 no effect, 100 complete control)
Outline: as §2

[10] = system: barnyardgrass; test: Test B pre-/postemergence herbicide test; type: in vivo, Echinochloa crus-galli
Outline: as §3

[11] = system: blackgrass; test: Test B postemergence herbicide test; type: in vivo, Alopecurus myosuroides
Outline: as §2

[12] = system: barnyardgrass; test: Test B flooded paddy test; type: in vivo, Echinochloa crus-galli; details: 1000 g ai/ha, scale 0 to 100 (0 no effect, 100 complete control)
Outline: as §2

[13] = system: giant foxtail; test: Test B pre-/postemergence herbicide test; type: in vivo, Setaria faberi
Outline: as §1

[14] = system: rice; test: Test B pre-/postemergence herbicide test; type: in vivo, Oryza sativa; details: preemergence
Outline: as §1

[15] = system: cocklebur; test: Test B pre-/postemergence herbicide test; type: in vivo, Xanthium strumarium
Outline: as §3

[16] = system: Surinam grass; test: Test B pre-/postemergence herbicide test; type: in vivo, Urochloa decumbens
Outline: as §1

[17] = system: lambsquarters; test: Test B pre-/postemergence herbicide test; type: in vivo, Chenopodium album
Outline: as §1

[18] = system: rice; test: Test B flooded paddy test; type: in vivo, Oryza sativa; details: 1000 g ai/ha, scale 0 to 100 (0 no effect, 100 complete control)
Outline: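 Scale 0–100: zero equals no visible effect, 100 complete control, judged by eye relative to controls. Timing: 13 to 15 days in greenhouse post-treatment. Growth stage at spraying: two leaves (paddy) or one to four leaves, 2–18 cm (postemergence).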

[19] = 500 g ai/ha; visual rating 0-100, 0 no effect, 100 complete control; preemergence
[20] = Postemergence, 500 g ai/ha; visual rating after 13 to 15 days, scale 0 (no effect) to 100 (complete control)
[21] = postemergence, 125 g ai/ha; visual rating, scale 0 (no effect) to 100 (complete control)
[22] = preemergence, 125 g ai/ha; 0 to 100 scale, 0 is no effect, 100 is complete control
[23] = 125 g ai/ha; 0 = no effect, 100 = complete control; preemergence
[24] = 500 g ai/ha; visual rating, 0 = no effect, 100 = complete control; preemergence
[25] = postemergence, 500 g ai/ha; scale 0 to 100, 0 is no effect, 100 is complete control
[26] = postemergence, 500 g ai/ha; visual rating, scale 0 (no effect) to 100 (complete control)
[27] = 125 g ai/ha, 0 = no effect, 100 = complete control
[28] = 500 g ai/ha, visual rating, 0 = no effect, 100 = complete control
[29] = 125 g ai/ha; visual rating, scale 0 (no effect) to 100 (complete control); postemergence

SMILES: CCOC(=O)c1cc(NC(=O)c2cc(C(C)(C)C)nn2CC)ccc1C [Compound 99]
- Plant response rating, Corn [1, 19]: 0
- Plant response rating, Corn [1, 20]: 20
- Corn plant response rating [1, 21]: 10
- Plant response rating, Corn [1, 22]: 0
- Plant response rating, Oat, Wild [2, 20]: 40
- Oat, Wild plant response rating [2, 21]: 20
- Plant response rating, Pigweed [3, 20]: 70
- Pigweed plant response rating [3, 21]: 20
- Plant response rating, Pigweed [3, 22]: 0
- Plant response rating, Wheat [4, 20]: 20
- Wheat plant response rating [4, 21]: 20
- Plant response rating, Morningglory [5, 19]: 0
- Plant response rating, Morningglory [5, 20]: 20
- Morningglory plant response rating [5, 21]: 0
- Plant response rating, Morningglory [5, 22]: 0
- Plant response rating, Velvetleaf [6, 19]: 20
- Plant response rating, Velvetleaf [6, 20]: 40
- Velvetleaf plant response rating [6, 21]: 20
- Plant response rating, Velvetleaf [6, 22]: 10
- Ducksalad plant response rating ([7]; visual rating, 13 to 15 days): 0
- Plant response rating, Crabgrass, Large [8, 19]: 70
- Plant response rating, Crabgrass, Large [8, 20]: 10
- Crabgrass, Large plant response rating [8, 21]: 10
- Plant response rating, Crabgrass, Large [8, 22]: 20
- Sedge, Umbrella plant response rating ([9]; visual rating, 13 to 15 days): 40
- Plant response rating, Barnyardgrass [10, 19]: 30
- Plant response rating, Barnyardgrass [10, 20]: 0
- Barnyardgrass plant response rating [10, 21]: 0
- Plant response rating, Barnyardgrass [10, 22]: 0
- Plant response rating, Blackgrass [11, 20]: 40
- Blackgrass plant response rating [11, 21]: 20
- Barnyardgrass plant response rating ([12]; visual rating, 13 to 15 days): 0
- Plant response rating, Foxtail, Giant [13, 19]: 20
- Plant response rating, Foxtail, Giant [13, 20]: 30
- Foxtail, Giant plant response rating [13, 21]: 10
- Plant response rating, Foxtail, Giant [13, 22]: 10
- Plant response rating, Rice ([14]; 500 g ai/ha, visual rating 0-100, 0 no effect, 100 complete control): 0
- Plant response rating, Rice ([14]; 125 g ai/ha, 0 to 100 scale, 0 is no effect, 100 is complete control): 0
- Plant response rating, Cocklebur [15, 19]: 0
- Plant response rating, Cocklebur [15, 20]: 30
- Cocklebur plant response rating [15, 21]: 0
- Plant response rating, Cocklebur [15, 22]: 0
- Plant response rating, Surinam Grass [16, 19]: 30
- Plant response rating, Surinam Grass [16, 20]: 10
- Surinam Grass plant response rating [16, 21]: 10
- Plant response rating, Surinam Grass [16, 22]: 10
- Plant response rating, Lambsquarters [17, 19]: 20
- Plant response rating, Lambsquarters [17, 20]: 90
- Lambsquarters plant response rating [17, 21]: 70
- Plant response rating, Lambsquarters [17, 22]: 0
- Rice plant response rating ([18]; visual rating, 13 to 15 days): 0

SMILES: CCc1nn(C(C)(C)C)cc1C(=O)Nc1ccc(F)c(C(=O)N(CC)CC)c1 [Compound 240]
- Corn plant response rating (0 to 100 scale) [1, 23]: 0
- Plant response rating, Corn [1, 24]: 0
- Corn plant response rating [1, 21]: 0
- Corn plant response rating [1, 25]: 10
- Oat, Wild plant response rating [2, 21]: 0
- Oat, Wild plant response rating [2, 25]: 0
- Pigweed plant response rating (0 to 100 scale) [3, 23]: 0
- Plant response rating, Pigweed [3, 24]: 100
- Pigweed plant response rating [3, 21]: 0
- Pigweed plant response rating [3, 25]: 50
- Wheat plant response rating [4, 21]: 0
- Wheat plant response rating [4, 25]: 20
- Morningglory plant response rating (0 to 100 scale) [5, 23]: 0
- Plant response rating, Morningglory [5, 24]: 0
- Morningglory plant response rating [5, 21]: 20
- Morningglory plant response rating [5, 25]: 30
- Velvetleaf plant response rating (0 to 100 scale) [6, 23]: 0
- Velvetleaf plant response rating [6, 21]: 0
- Velvetleaf plant response rating [6, 25]: 10
- Ducksalad plant response rating [7]: 0
- Crabgrass, Large plant response rating (0 to 100 scale) [8, 23]: 20
- Plant response rating, Crabgrass, Large [8, 24]: 100
- Crabgrass, Large plant response rating [8, 21]: 0
- Crabgrass, Large plant response rating [8, 25]: 20
- Sedge, Umbrella plant response rating [9]: 60
- Barnyardgrass plant response rating (0 to 100 scale) [10, 23]: 0
- Plant response rating, Barnyardgrass [10, 24]: 70
- Barnyardgrass plant response rating [10, 21]: 0
- Barnyardgrass plant response rating [10, 26]: 0
- Blackgrass plant response rating [11, 21]: 0
- Blackgrass plant response rating [11, 26]: 10
- Barnyardgrass plant response rating [12]: 0
- Foxtail, Giant plant response rating (0 to 100 scale) [13, 23]: 0
- Plant response rating, Foxtail, Giant [13, 24]: 80
- Foxtail, Giant plant response rating [13, 21]: 0
- Foxtail, Giant plant response rating [13, 25]: 0
- Rice plant response rating (0 to 100 scale) [14, 27]: 0
- Plant response rating, Rice [14, 28]: 0
- Cocklebur plant response rating (0 to 100 scale) [15, 23]: 0
- Plant response rating, Cocklebur [15, 24]: 0
- Cocklebur plant response rating [15, 21]: 0
- Cocklebur plant response rating [15, 26]: 20
- Surinam Grass plant response rating (0 to 100 scale) [16, 23]: 0
- Plant response rating, Surinam Grass [16, 24]: 20
- Surinam Grass plant response rating [16, 21]: 0
- Surinam Grass plant response rating [16, 25]: 20
- Lambsquarters plant response rating (0 to 100 scale) [17, 23]: 0
- Plant response rating, Lambsquarters [17, 24]: 80
- Lambsquarters plant response rating [17, 21]: 20
- Lambsquarters plant response rating [17, 25]: 50
- Rice plant response rating [18]: 0

SMILES: CCn1nc(C(C)(C)C)cc1C(=O)Nc1cc(OC)ccc1OC [Compound 297]
- Corn plant response rating (0 to 100 scale) [1, 23]: 0
- Corn plant response rating [1, 29]: 10
- Plant response rating, Corn [1, 24]: 0
- Corn plant response rating [1, 25]: 100
- Oat, Wild plant response rating [2, 29]: 0
- Oat, Wild plant response rating [2, 25]: 20
- Pigweed plant response rating (0 to 100 scale) [3, 23]: 0
- Pigweed plant response rating [3, 29]: 0
- Plant response rating, Pigweed [3, 24]: 40
- Pigweed plant response rating [3, 25]: 40
- Wheat plant response rating [4, 29]: 0
- Wheat plant response rating [4, 25]: 10
- Morningglory plant response rating (0 to 100 scale) [5, 23]: 10
- Morningglory plant response rating [5, 29]: 0
- Plant response rating, Morningglory [5, 24]: 10
- Morningglory plant response rating [5, 25]: 30
- Velvetleaf plant response rating [6, 29]: 0
- Plant response rating, Velvetleaf [6, 24]: 10
- Velvetleaf plant response rating [6, 25]: 10
- Ducksalad plant response rating [7]: 30
- Crabgrass, Large plant response rating (0 to 100 scale) [8, 23]: 20
- Crabgrass, Large plant response rating [8, 29]: 20
- Plant response rating, Crabgrass, Large [8, 24]: 80
- Crabgrass, Large plant response rating [8, 25]: 30
- Sedge, Umbrella plant response rating [9]: 80
- Barnyardgrass plant response rating (0 to 100 scale) [10, 23]: 0
- Barnyardgrass plant response rating [10, 29]: 10
- Plant response rating, Barnyardgrass [10, 24]: 20
- Barnyardgrass plant response rating [10, 25]: 20
- Blackgrass plant response rating [11, 29]: 10
- Blackgrass plant response rating [11, 25]: 20
- Barnyardgrass plant response rating [12]: 30
- Foxtail, Giant plant response rating (0 to 100 scale) [13, 23]: 10
- Foxtail, Giant plant response rating [13, 29]: 20
- Plant response rating, Foxtail, Giant [13, 24]: 60
- Foxtail, Giant plant response rating [13, 25]: 30
- Rice plant response rating (0 to 100 scale) [14, 27]: 0
- Plant response rating, Rice [14, 28]: 10
- Cocklebur plant response rating (0 to 100 scale) [15, 23]: 0
- Cocklebur plant response rating [15, 29]: 0
- Plant response rating, Cocklebur [15, 24]: 0
- Cocklebur plant response rating [15, 25]: 0
- Surinam Grass plant response rating (0 to 100 scale) [16, 23]: 10
- Surinam Grass plant response rating [16, 29]: 20
- Plant response rating, Surinam Grass [16, 24]: 20
- Surinam Grass plant response rating [16, 25]: 30
- Lambsquarters plant response rating (0 to 100 scale) [17, 23]: 0
- Lambsquarters plant response rating [17, 29]: 10
- Plant response rating, Lambsquarters [17, 24]: 80
- Lambsquarters plant response rating [17, 25]: 20
- Rice plant response rating [18]: 20
